From patent publication US10172832B2, “Amide derivatives of N-urea substituted amino acids as formyl peptide receptor like-1 (FPRL-1) receptor modulators” (Allergan, Inc., priority 2011, dated 2019)

Molecular target: T1, FPRL-1 (Homo sapiens, UniProt P25090)
T1 construct: expressed in transfected cells
T1 sequence (P25090 1-351): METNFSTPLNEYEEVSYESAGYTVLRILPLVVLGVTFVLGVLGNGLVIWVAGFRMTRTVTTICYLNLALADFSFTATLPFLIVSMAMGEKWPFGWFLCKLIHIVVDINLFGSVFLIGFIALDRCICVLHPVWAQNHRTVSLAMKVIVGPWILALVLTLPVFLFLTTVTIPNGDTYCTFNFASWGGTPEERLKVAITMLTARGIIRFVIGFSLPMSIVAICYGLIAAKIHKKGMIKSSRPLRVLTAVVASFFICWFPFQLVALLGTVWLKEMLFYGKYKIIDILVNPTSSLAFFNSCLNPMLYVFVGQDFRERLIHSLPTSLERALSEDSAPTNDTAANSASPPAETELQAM
Assay: compound-induced calcium activity on FLIPR Tetra in CHO-Gα16 cells stably expressing FPRL1
Type: cell-based
Details: for FPRL-1 Ga16-CHO (Rel. eff.): relative efficacy; for EC50: tested 0.61 to 10,000 nM, read-out: FPRL-1 Ga16-CHO EC50
Procedure: CHO-Gα16 cells stably expressing FPRL1 were cultured in (F12, 10% FBS, 1% PSA, 400 μg/ml geneticin and 50 μg/ml hygromycin) and HEK-Gqi5 cells stable expressing FPR1 were cultured in (DMEM high glucose, 10% FBS, 1% PSA, 400 μg/ml geneticin and 50 μg/ml hygromycin). In general, the day before the experiment, 18,000 cells/well were plated in a 384-well clear bottom poly-d-lysine coated plate. The following day the screening compound-induced calcium activity was assayed on the FLIPR^Tetra. The drug plates were prepared in 384-well microplates using the EP3 and the MultiPROBE robotic liquid handling systems. Compounds were tested at concentrations ranging from 0.61 to 10,000 nM. Results are expressed as EC50 (nM) and efficacy values.

Row | SMILES | FPRL-1 Ga16-CHO (Rel. eff.) | EC50 [nM]
1 | CCC[C@H](NC(=O)Nc1ccc(Br)cc1)C(=O)NCCO [Compound 20, (2S)-2-{[(4-bromophenyl)carbamoyl]amino}-N-(2-hydroxyethyl)pentanamid] | (0.92) | 38
2 | CC(C)CC(C)(NC(=O)Nc1ccc(Br)cc1)C(=O)NCC(=O)O (stereo not shown) [Compound 56, {[2-{[(4-bromophenyl)carbamoyl]amino}-2,4-dimethylpentanoyl]amino}acetic acid] | (0.98) | 22
3 | CC(C)C[C@H](NC(=O)Nc1ccc(Br)cc1)C(=O)NCC(=O)OC(C)(C)C [Compound 25, tert-butyl {[(2S)-2-{[(4-bromophenyl)carbamoyl]amino}-4-methylpentanoyl]amino}acetate] | (0.85) | 140
4 | CSCC[C@H](NC(=O)Nc1ccc(Br)cc1)C(=O)NCC(=O)OC(C)(C)C [Compound 80, tert-butyl {[(2S)-2-{[(4-bromophenyl)carbamoyl]amino}-4-(methylsulfanyl)butanoyl]amino}acetate] | (0.98) | 127
5 | CC(C)C[C@H](NC(=O)Nc1ccc(Br)cc1F)C(=O)N[C@@H](C)C(=O)OC(C)(C)C [Compound 38, tert-butyl(2S)-2-{[(2S)-2-{[(4-bromo-2-fluorophenyl)carbamoyl]amino}-4-methylpentanoyl]amino}propanoate] | (1.00) | 174
6 | CCC[C@H](NC(=O)Nc1ccc(Br)cc1F)C(=O)NCC(C)=O [(2S)-2-{[(4-bromo-2-fluorophenyl)carbamoyl]amino}-N-(2-oxopropyl)pentanamide] | (0.92) | 92
7 | CC(C)(C)OC(=O)CNC(=O)[C@H](Cc1ccccc1)NC(=O)Nc1ccc(Br)cc1 [Compound 7, tert-Butyl {[(2S)-2-{[(4-bromophenyl)carbamoyl]amino}-3-phenylpropanoyl]amino}acetate] | (0.91) | 118
8 | CCC[C@H](NC(=O)Nc1ccc(Br)cc1F)C(=O)NCC(=O)OC(C)(C)C [tert-butyl {[(2S)-2-{[(4-bromo-2-fluorophenyl)carbamoyl]amino}pentanoyl]amino}acetate] | (0.95) | 83
9 | CC(C)(C)OC(=O)CCNC(=O)[C@H](Cc1ccccc1)NC(=O)Nc1ccc(Br)cc1 [Compound 8, tert-butyl 3-{[(2S)-2-{[(4-bromophenyl)carbamoyl]amino}-3-phenylpropanoyl]amino}propanoate] | (1.00) | 255
10 | CC(C)(C)OC(=O)CNC(=O)C(Cc1c[nH]cn1)NC(=O)Nc1ccc(Br)cc1 (stereo not shown) [Compound 84, tert-butyl {[2-{[(4-bromophenyl)carbamoyl]amino}-3-(1H-imidazol-4-yl)propanoyl]amino}acetate] | (0.95) | 263
11 | CCC[C@H](NC(=O)Nc1ccc(Br)cc1F)C(=O)NCCO [Compound 21, (2S)-2-{[(4-bromo-2-fluorophenyl)carbamoyl]amino}-N-(2-hydroxyethyl) pentanamide] | (0.87) | 105
12 | CCC[C@H](NC(=O)Nc1ccc(Br)cc1)C(=O)NCC(=O)OCC [Compound 23, ethyl {[(2S)-2-{[(4-bromophenyl)carbamoyl]amino}-pentanoyl]amino}acetate] | (1.18) | 57
13 | CSc1ccc(NC(=O)N[C@@H](CC(C)C)C(=O)NCC(=O)OC(C)(C)C)cc1 [Compound 68, tert-butyl {[(2S)-4-methyl-2-({[4-(methylsulfanyl)phenyl]carbamoyl}amino)pentanoyl]amino}acetate] | (0.98) | 116
14 | CC(C)C[C@@H](NC(=O)Nc1ccc(Br)cc1)C(=O)NCC(=O)OC(C)(C)C [Compound 66, tert-butyl {[(2R)-2-{[(4-bromophenyl)carbamoyl]amino}-4-methylpentanoyl]amino}acetate] | (0.92) | 3660
15 | CC(=O)CNC(=O)[C@H](CC(C)C)NC(=O)Nc1ccc(Br)cc1F [Compound 35, (2S)-2-{[(4-bromo-2-fluorophenyl)carbamoyl]amino}-4-methyl-N-(2-oxopropyl)pentanamide] | (0.99) | 20
16 | CC[C@@H](C)[C@@H](NC(=O)Nc1ccc(Br)cc1)C(=O)NCC(=O)OC(C)(C)C [Compound 64, tert-butyl {[(2R,3R)-2-{[(4-bromophenyl)carbamoyl]amino}-3-methylpentanoyl]amino}acetate] | (0.44) | 3970
17 | CC(=O)CNC(=O)[C@H](Cc1ccccc1)NC(=O)Nc1ccc(Br)cc1 [Compound 16, (2S)-2-{[(4-bromophenyl)carbamoyl]aminio}-N-(2-oxopropyl)-3-phenylpropanamide] | (0.96) | 29
18 | CC(C)C[C@H](NC(=O)Nc1ccc(Br)cc1)C(=O)N[C@@H](C)C(=O)OC(C)(C)C [Compound 41] | (0.96) | 147
19 | CC(C)C[C@H](NC(=O)Nc1ccc(S(C)(=O)=O)cc1)C(=O)NCC(=O)O [Compound 78, {[(2S)-4-methyl-2-({[4-(methylsulfonyl)phenyl]carbamoyl}amino)pentanoyl]amino}acetic acid] | (1.12) | 459
20 | CC(C)C[C@@H](NC(=O)Nc1ccc(Br)cc1)C(=O)NC(C)(C)C(=O)OC(C)(C)C [Compound 86, tert-butyl 2-{[(2R)-2-{[(4-bromophenyl)carbamoyl]amino}-4-methylpentanoyl]amino}-2-methylpropanoate] | (0.74) | 2730

Compounds with a lower EC50, results first:

Row | FPRL-1 Ga16-CHO (Rel. eff.) | EC50 [nM] | SMILES
21 | (1.06) | 13 | CCC[C@H](NC(=O)[C@H](CC(C)C)NC(=O)Nc1ccc(Br)cc1)C(=O)OC(C)(C)C [Compound 49]
22 | (0.95) | 12 | CC(C)C[C@H](NC(=O)Nc1ccc(Br)cc1F)C(=O)N[C@@H](C)C(=O)O [Compound 39, (2S)-2-{[(2S)-2-{[(4-bromo-2-fluorophenyl)carbamoyl]amino}-4-methylpentanoyl]amino}propanoic acid]
23 | (1.00) | 10 | CC[C@H](C)[C@H](NC(=O)Nc1ccc(Br)cc1F)C(=O)NCC(N)=O [Compound 29, (2S,3S)-N-(2-amino-2-oxoethyl)-2-{[(4-bromo-2-fluorophenyl)carbamoyl]amino}-3-methylpentanamide]
24 | (0.99) | 7.7 | O=C(O)CNC(=O)[C@H](Cc1ccccc1)NC(=O)Nc1ccc(Br)cc1 [Compound 1, {[(2S)-2-{[(4-bromophenyl)carbamoyl]amino}-3-phenylpropanoyl]amino}acetic acid]
25 | (1.03) | 7 | CSCC[C@H](NC(=O)Nc1ccc(Br)cc1)C(=O)NCC(=O)O [Compound 82, {[(2S)-2-{[(4-bromophenyl)carbamoyl]amino}-4-(methylsulfanyl)butanoyl]amino}acetic acid]
26 | (0.92) | 6 | O=C(Nc1ccc(Br)cc1)N[C@@H](Cc1ccccc1)C(=O)NCCO [Compound 9, (2S)-2-{[(4-bromophenyl)carbamoyl]amino}-N-(2-hydroxyethyl)-3-phenylpropanamide]
27 | (0.92) | 4.8 | CCC[C@H](NC(=O)Nc1ccc(Br)cc1F)C(=O)NCC(=O)O [{[(2S)-2-{[(4-bromo-2-fluorophenyl)carbamoyl]amino}pentanoyl]amino}acetic acid]
28 | (0.81) | 4.6 | CC[C@H](C)[C@H](NC(=O)Nc1ccc(Br)cc1)C(=O)NCC(N)=O [Compound 28, (2S,3S)—N-(2-amino-2-oxoethyl)-2-{[(4-bromophenyl)carbamoyl]amino}-3-methylpentanamide]
29 | (1.10) | 3.6 | CC(C)C[C@H](NC(=O)Nc1ccc(Br)cc1F)C(=O)NCC(=O)O [Compound 34, {[(2S)-2-{[(4-bromo-2-fluorophenyl)carbamoyl]amino}-4-methylpentanoyl]amino}acetic acid]
30 | (1.13) | 1.83 | CC(C)C[C@H](NC(=O)Nc1ccc(Br)cc1)C(=O)N[C@H](C(=O)O)C(C)C [Compound 44, (2S)-2-{[(2S)-2-{[(4-bromophenyl)carbamoyl]amino}-4-methylpentanoyl]amino}-3-methylbutanoic acid]
31 | (0.89) | 1 | CCC[C@H](NC(=O)[C@H](CC(C)C)NC(=O)Nc1ccc(Br)cc1)C(=O)O [Compound 51, (2S)-2-{[(2S)-2-{[(4-bromophenyl)carbamoyl]amino}-4-methylpentanoyl]amino}pentanoic acid]
32 | (0.96) | 1 | CC(C)C[C@H](NC(=O)Nc1ccc(Br)cc1)C(=O)NC(C)(C)C(=O)O [Compound 74, 2-{[(2S)-2-{[(4-bromophenyl)carbamoyl]amino}-4-methylpentanoyl]amino}-2-methylpropanoic acid]
